Reference: patent publication US20150231130A1, “PHARMACEUTICAL COMPOSITION COMPRISING DIAMORPHINE FOR INTRANASAL ADMINISTRATION” (WOCKHARDT LIMITED, priority 2012, published 2015)
“Also recorded” adds a separate entry of the source.

Key:
[1] = Respiratory depression (clinically notable changes in vital signs) in the clinical study; assay type: in vivo, children; conditions: single intranasal dose, 0.1 mg/kg body weight
Excerpt: (§1) An open label, single dose, sparse sampling pharmacokinetic dentate study in children aged from 1-<16 years attending hospital clinics for minor day surgery or laser treatment and requiring intravenous cannulation and opiate analgesia for their routine clinical management. The cannulation site on the child's arm was numbed with local anaesthetic cream, and a cannula was inserted. The child was then anaesthetized and a baseline blood sample taken. The child received 1-3 sprays of intranasal diamorphine, depending on their weight, and another blood sample was taken as soon as possible (from 0-10 minutes) post dose. Up to four further pharmacokinetic blood samples were taken from the cannula for the purposes of the study spaced out over the following time windows: 10-20 minutes, 20-30 minutes, 30-45 minutes, 45-60 minutes, 60-120 minutes and between 120 minutes post dose and removal of the cannula. Plasma acetylmorphine, morphine, morphine-3-glucuronide, and morphine-6-glucuronide concentrations were determined. The data from all children taking part in the trial was pooled and analysed together to avoid excessive blood sampling. Population pharmacokinetic parameters were estimated by using a non-linear mixed effects dentate approach. Adverse events, vital signs, nasal tolerance and pain scores were also monitored. […]

[2] = FLACC total pain scores, open label single dose clinical study of diamorphine hydrochloride nasal spray in children; assay type: in vivo; conditions: 0.1 mg/kg body weight intranasally; children aged 1-<16 years
Excerpt: as §1, with “Up to four further pharmacokinetic blood samples were taken from the cannula for the purposes of the study spaced out over the following time windows: 10-20 minutes, 20-30 minutes, 30-45 minutes, 45-60 minutes, 60-120 minutes and between 120 minutes post dose and removal of the cannula.” left out, “Population pharmacokinetic parameters were estimated by using a non-linear mixed effects dentate approach.” left out
For assessing the effectiveness of the Diamorphine Hydrochloride Nasal Spray pain scores were measured. The investigators or nurses measured the FLACC scores. The total score was based on 5 categories: (F) Face; (L) Legs; (A) Activity; (C) Cry; (C) Consolability; are scored between […]. […]

[3] = in presence of water degrades; cited from earlier work
[4] = cited from earlier work
[5] = Adverse events, open label single dose clinical study of diamorphine hydrochloride nasal spray in children; assay type: in vivo; conditions: single intranasal dose
Excerpt: as §1

[6] = 0.1 mg/kg of body weight, intravenous injection; cited from earlier work
human plasma proteins = conditions: cited from earlier work

**Q.** For `CC(=O)Oc1ccc2c3c1OC1[C@@H](OC(C)=O)C=C[C@H]4[C@@H](C2)N(C)CC[C@]314` (some centres unmarked) [diamorphine, 3,6-diacetyl ester of morphine], which “Respiratory depression (clinically notable changes in vital signs)” value [1] is on record?
**A.** The value was “free from the major side effects such as respiratory depression; also recorded: No respiratory depressant effect was observed”.

**Q.** And the “Analgesic effectiveness (in words)” value [2]?
**A.** Its value is “effective alone in producing the analgesic effects”.

**Q.** What about the “Stability in liquid dosage form (in words)” value [3] of the same molecule?
**A.** Its value is “highly unstable in liquid dosage form”.

**Q.** And the half-life ([4]; in man)?
**A.** The half-life was “two to three”.

**Q.** What about the “Duration of analgesic effect” value ([4]; in vivo) of the same molecule?
**A.** Its value is “three to four”.

**Q.** And the “Incidence of adverse events (in words)” value [5]?
**A.** The value was “very low”.

**Q.** What about the “Respiratory depressant effect (in words)” value [6] of the same molecule?
**A.** Its value is “respiratory depressant effect is reported”.

**Q.** What about the “Protein binding (in words)” value (human plasma proteins) of the same molecule?
**A.** Its value is “does not bind to protein”.
